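96-well plates; 48 h exposure; 5 concentrations. Endpoints by linear interpolation between flanking doses. Not reached: highest tested concentration assigned. GI50 = concentration required for 50% inhibition of growth. TGI denotes the concentration required for complete inhibition of growth.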
Assays:
Experiment in all cases: NCI anticancer screen, dose series, 48 h
COLO 205 colon = tested on: COLO 205 colon
ACHN renal = tested on: ACHN renal
NCI-H23 lung = tested on: NCI-H23 lung
SR leukemia = tested on: SR leukemia
A498 renal = tested on: A498 renal
SW-620 colon = tested on: SW-620 colon
OVCAR-3 ovarian = tested on: OVCAR-3 ovarian
MCF7 breast = tested on: MCF7 breast
EKVX NSCLC = tested on: EKVX NSCLC
SK-MEL-2 melanoma = tested on: SK-MEL-2 melanoma
NCI/ADR-RES ovarian = tested on: NCI/ADR-RES ovarian
NCI-H522 lung = tested on: NCI-H522 lung
SK-MEL-5 melanoma = tested on: SK-MEL-5 melanoma
MOLT-4 leukemia = tested on: MOLT-4 leukemia
SF-295 CNS = tested on: SF-295 CNS
MDA-MB-231 breast = tested on: MDA-MB-231 breast
U251 CNS = tested on: U251 CNS
HOP-92 NSCLC = tested on: HOP-92 NSCLC
SNB-19 CNS = tested on: SNB-19 CNS
SN12C renal = tested on: SN12C renal
RXF 393 renal = tested on: RXF 393 renal
HS 578T breast = tested on: HS 578T breast
MDA-MB-435 = tested on: MDA-MB-435
SF-539 CNS = tested on: SF-539 CNS
UACC-62 melanoma = tested on: UACC-62 melanoma
OVCAR-4 ovarian = tested on: OVCAR-4 ovarian
HT29 colon = tested on: HT29 colon
CAKI-1 renal = tested on: CAKI-1 renal
K-562 leukemia = tested on: K-562 leukemia
OVCAR-5 ovarian = tested on: OVCAR-5 ovarian
SK-OV-3 ovarian = tested on: SK-OV-3 ovarian
MALME-3M melanoma = tested on: MALME-3M melanoma
CCRF-CEM leukemia = tested on: CCRF-CEM leukemia
SF-268 CNS = tested on: SF-268 CNS
T-47D breast = tested on: T-47D breast
HCC-2998 colon = tested on: HCC-2998 colon
A549 NSCLC = tested on: A549 NSCLC
SNB-75 CNS = tested on: SNB-75 CNS
TK-10 renal = tested on: TK-10 renal
UACC-257 melanoma = tested on: UACC-257 melanoma
UO-31 renal = tested on: UO-31 renal
NCI-H226 lung = tested on: NCI-H226 lung
NCI-H460 lung = tested on: NCI-H460 lung
786-0 renal = tested on: 786-0 renal
RPMI-8226 leukemia = tested on: RPMI-8226 leukemia
HOP-62 NSCLC = tested on: HOP-62 NSCLC
PC-3 prostate = tested on: PC-3 prostate
BT-549 breast = tested on: BT-549 breast
LOX IMVI melanoma = tested on: LOX IMVI melanoma
SK-MEL-28 melanoma = tested on: SK-MEL-28 melanoma
OVCAR-8 ovarian = tested on: OVCAR-8 ovarian
HCT-116 colon = tested on: HCT-116 colon
HCT-15 colon = tested on: HCT-15 colon
KM12 colon = tested on: KM12 colon
HL-60(TB) leukemia = tested on: HL-60(TB) leukemia
M14 melanoma = tested on: M14 melanoma
DU-145 prostate = tested on: DU-145 prostate

O=C(N/N=C\c1c(O)ccc2ccccc12)C1CC1
GI50 (COLO 205 colon): 11.2 µM | TGI (COLO 205 colon): 93.8 µM | GI50 (ACHN renal): 2.82 µM | TGI (ACHN renal): > 100 µM | GI50 (NCI-H23 lung): 5.94 µM | TGI (NCI-H23 lung): > 100 µM | GI50 (SR leukemia): 2.55 µM | TGI (SR leukemia): > 100 µM | GI50 (A498 renal): 16.8 µM | TGI (A498 renal): 52 µM | GI50 (SW-620 colon): 6.55 µM | TGI (SW-620 colon): > 100 µM | GI50 (OVCAR-3 ovarian): 2.2 µM | TGI (OVCAR-3 ovarian): 46 µM | GI50 (MCF7 breast): 3.41 µM | TGI (MCF7 breast): > 100 µM | GI50 (EKVX NSCLC): 2.91 µM | TGI (EKVX NSCLC): > 100 µM | GI50 (SK-MEL-2 melanoma): 18.9 µM | TGI (SK-MEL-2 melanoma): > 100 µM | GI50 (NCI/ADR-RES ovarian): 2.76 µM | TGI (NCI/ADR-RES ovarian): > 100 µM | GI50 (NCI-H522 lung): 5.75 µM | TGI (NCI-H522 lung): > 100 µM | GI50 (SK-MEL-5 melanoma): 3.81 µM | TGI (SK-MEL-5 melanoma): > 100 µM | GI50 (MOLT-4 leukemia): 3.17 µM | TGI (MOLT-4 leukemia): > 100 µM | GI50 (SF-295 CNS): 2.26 µM | TGI (SF-295 CNS): 8.23 µM | GI50 (MDA-MB-231 breast): 7.5 µM | TGI (MDA-MB-231 breast): > 100 µM | GI50 (U251 CNS): 2.05 µM | TGI (U251 CNS): > 100 µM | GI50 (HOP-92 NSCLC): 16.7 µM | TGI (HOP-92 NSCLC): > 100 µM | GI50 (SNB-19 CNS): 12.9 µM | TGI (SNB-19 CNS): > 100 µM | GI50 (SN12C renal): 11.7 µM | TGI (SN12C renal): > 100 µM | GI50 (RXF 393 renal): 8.91 µM | TGI (RXF 393 renal): > 100 µM | GI50 (HS 578T breast): 17.2 µM | TGI (HS 578T breast): > 100 µM | GI50 (MDA-MB-435): 11.6 µM | TGI (MDA-MB-435): > 100 µM | GI50 (SF-539 CNS): 4.48 µM | TGI (SF-539 CNS): > 100 µM | GI50 (UACC-62 melanoma): 3.25 µM | TGI (UACC-62 melanoma): 22.8 µM | GI50 (OVCAR-4 ovarian): 2.6 µM | TGI (OVCAR-4 ovarian): > 100 µM | GI50 (HT29 colon): 13 µM | TGI (HT29 colon): > 100 µM | GI50 (CAKI-1 renal): 1.6 µM | TGI (CAKI-1 renal): 8.22 µM | GI50 (K-562 leukemia): 3.64 µM | TGI (K-562 leukemia): > 100 µM | GI50 (OVCAR-5 ovarian): 19.6 µM | TGI (OVCAR-5 ovarian): > 100 µM | GI50 (SK-OV-3 ovarian): 3.36 µM | TGI (SK-OV-3 ovarian): 67.2 µM | GI50 (MALME-3M melanoma): 7.76 µM | TGI (MALME-3M melanoma): 54 µM | GI50 (CCRF-CEM leukemia): 0.889 µM | TGI (CCRF-CEM leukemia): > 100 µM | GI50 (SF-268 CNS): 4.1 µM | TGI (SF-268 CNS): > 100 µM | GI50 (T-47D breast): 4.9 µM | TGI (T-47D breast): > 100 µM | GI50 (HCC-2998 colon): 9.8 µM | TGI (HCC-2998 colon): > 100 µM | GI50 (A549 NSCLC): 7.13 µM | TGI (A549 NSCLC): > 100 µM | GI50 (SNB-75 CNS): 6.68 µM | TGI (SNB-75 CNS): 91.1 µM | GI50 (TK-10 renal): 30.4 µM | TGI (TK-10 renal): > 100 µM | GI50 (UACC-257 melanoma): 3.74 µM | TGI (UACC-257 melanoma): 97.1 µM | GI50 (UO-31 renal): 0.863 µM | TGI (UO-31 renal): 14.9 µM | GI50 (NCI-H226 lung): 13.1 µM | TGI (NCI-H226 lung): 84.2 µM | GI50 (NCI-H460 lung): 3 µM | TGI (NCI-H460 lung): > 100 µM | GI50 (786-0 renal): 5.16 µM | TGI (786-0 renal): > 100 µM | GI50 (RPMI-8226 leukemia): 7.91 µM | TGI (RPMI-8226 leukemia): > 100 µM | GI50 (HOP-62 NSCLC): 4.34 µM | TGI (HOP-62 NSCLC): 91.4 µM | GI50 (PC-3 prostate): 11.7 µM | TGI (PC-3 prostate): > 100 µM | GI50 (BT-549 breast): 5.78 µM | TGI (BT-549 breast): 88.7 µM | GI50 (LOX IMVI melanoma): 1.79 µM | TGI (LOX IMVI melanoma): > 100 µM | GI50 (SK-MEL-28 melanoma): 17.8 µM | TGI (SK-MEL-28 melanoma): > 100 µM | GI50 (OVCAR-8 ovarian): 3.12 µM | TGI (OVCAR-8 ovarian): > 100 µM | GI50 (HCT-116 colon): 3.04 µM | TGI (HCT-116 colon): > 100 µM | GI50 (HCT-15 colon): 1.22 µM | TGI (HCT-15 colon): > 100 µM | GI50 (KM12 colon): 6.12 µM | TGI (KM12 colon): > 100 µM | GI50 (HL-60(TB) leukemia): 1.53 µM | TGI (HL-60(TB) leukemia): > 100 µM | GI50 (M14 melanoma): 3.76 µM | TGI (M14 melanoma): 56 µM | GI50 (DU-145 prostate): 13.4 µM | TGI (DU-145 prostate): > 100 µM

Reference: PubChem BioAssay (NCI)
